Values quoted from earlier work, collected in patent publication US20210087552A1, “Methods, Compositions, and Systems for Classification of Genetic Variants of Unknown Significance” (Laboratory Corporation of America Holdings, priority 2019, published 2021).

Key:
[1] = system: individual mutations in ABL1, ASXL1, BRAF, CDKN2A, CEBPA, CSF3R, DNMT3A, EZH2, FLT3, IDH1, IDH2, JAK2, KIT, KMT2A, KRAS, NF1, NPM1, NRAS, PDGFRA, PML PTPN11 …
[2] = system: individual mutations in ABL1, ASXL1, BRAF, CSF3R, DNMT3A, EZH2, FLT3, IDH2, JAK2, KIT, KRAS, NF1, NRAS, PDGFRA, PML PTPN11, and TET2

Compound | mutation associated with resistance to chemotherapeutic agent [1] | mutation associated with resistance to agent [2]
Nc1ccn([C@@H]2O[C@H](CO)[C@@H](O)[C@@H]2O)c(=O)n1 [cytarabine] | resistance | 
Cc1cn(-c2cc(NC(=O)c3ccc(C)c(Nc4nccc(-c5cccnc5)n4)c3)cc(C(F)(F)F)c2)cn1 [nilotinib] |  | resistance
CC(C)(C)c1nc(-c2cccc(NS(=O)(=O)c3c(F)cccc3F)c2F)c(-c2ccnc(N)n2)s1 [dabrafenib] | resistance | 
